Laboratory results: patent US6352958B1, “Cycloimido-substituted benzofused heterocyclic herbicides” (FMC Corporation, priority 1997, dated 2002)

Tests used:
Assay type in all cases: in vivo
[1] = tested on: soybean (Glycine max var. Winchester); test: Preemergence herbicidal activity, soybean; conditions: Rate of Application 0.3 Kg/Ha, examined after 12-17 days
[2] = tested on: wheat (Triticum aestivum var. Lew); test: Preemergence herbicidal activity, wheat; conditions: Rate of Application 0.3 Kg/Ha, examined after 12-17 days
[3] = tested on: field corn (Zea mays var. Pioneer 3732); test: Preemergence herbicidal activity, corn; conditions: Rate of Application 0.3 Kg/Ha, examined after 12-17 days
[4] = tested on: velvetleaf (Abutilon theophrasti); test: Preemergence herbicidal activity, velvetleaf; conditions: Rate of Application 0.3 Kg/Ha, examined after 12-17 days
[5] = tested on: morningglory (Ipomea lacunosa or Ipomea hederacea); test: Preemergence herbicidal activity, morningglory; conditions: Rate of Application 0.3 Kg/Ha, examined after 12-17 days
[6] = tested on: common chickweed (Stellaria media); test: Preemergence herbicidal activity, chickweed; conditions: Rate of Application 0.3 Kg/Ha, examined after 12-17 days
[7] = tested on: common cocklebur (Xanthium strumarium L.); test: Preemergence herbicidal activity, cocklebur; conditions: Rate of Application 0.3 Kg/Ha, examined after 12-17 days
[8] = tested on: blackgrass (Aloepecurus myosuroides); test: Preemergence herbicidal activity, blackgrass; conditions: Rate of Application 0.3 Kg/Ha, examined after 12-17 days
[9] = tested on: green foxtail (Setaria viridis); test: Preemergence herbicidal activity, green foxtail; conditions: Rate of Application 0.3 Kg/Ha, examined after 12-17 days
[10] = tested on: Johnsongrass (Sorghum halepense); test: Preemergence herbicidal activity, johnsongrass; conditions: Rate of Application 0.3 Kg/Ha, examined after 12-17 days
[11] = tested on: soybean (Glycine max var. Winchester); test: Postemergence herbicidal activity, soybean; conditions: rate of application 0.3 Kg/Ha, rated after 12-17 days
[12] = tested on: wheat (Triticum aestivum var. Lew); test: Postemergence herbicidal activity, wheat; conditions: rate of application 0.3 Kg/Ha, rated after 12-17 days
[13] = tested on: field corn (Zea mays var. Pioneer 3732); test: Postemergence herbicidal activity, corn; conditions: rate of application 0.3 Kg/Ha, rated after 12-17 days
[14] = tested on: velvetleaf (Abutilon theophrasti); test: Postemergence herbicidal activity, velvetleaf; conditions: rate of application 0.3 Kg/Ha, rated after 12-17 days
[15] = tested on: morningglory (Ipomea lacunosa or Ipomea hederacea); test: Postemergence herbicidal activity, morningglory; conditions: rate of application 0.3 Kg/Ha, rated after 12-17 days
[16] = tested on: common chickweed (Stellaria media); test: Postemergence herbicidal activity, chickweed; conditions: rate of application 0.3 Kg/Ha, rated after 12-17 days
[17] = tested on: common cocklebur (Xanthium strumarium L.); test: Postemergence herbicidal activity, cocklebur; conditions: rate of application 0.3 Kg/Ha, rated after 12-17 days
[18] = tested on: blackgrass (Aloepecurus myosuroides); test: Postemergence herbicidal activity, blackgrass; conditions: rate of application 0.3 Kg/Ha, rated after 12-17 days
[19] = tested on: green foxtail (Setaria viridis); test: Postemergence herbicidal activity, green foxtail; conditions: rate of application 0.3 Kg/Ha, rated after 12-17 days
[20] = tested on: Johnsongrass (Sorghum halepense); test: Postemergence herbicidal activity, johnsongrass; conditions: rate of application 0.3 Kg/Ha, rated after 12-17 days

Compound	PREEMERGENCE HERBICIDAL ACTIVITY (% CONTROL) SOY [1] [%]	PREEMERGENCE HERBICIDAL ACTIVITY (% CONTROL) WHT [2] [%]	PREEMERGENCE HERBICIDAL ACTIVITY (% CONTROL) CRN [3] [%]	PREEMERGENCE HERBICIDAL ACTIVITY (% CONTROL) ABUTH [4] [%]	PREEMERGENCE HERBICIDAL ACTIVITY (% CONTROL) IPOSS [5] [%]	PREEMERGENCE HERBICIDAL ACTIVITY (% CONTROL) STEME [6] [%]	PREEMERGENCE HERBICIDAL ACTIVITY (% CONTROL) XANPE [7] [%]	PREEMERGENCE HERBICIDAL ACTIVITY (% CONTROL) ALOMY [8] [%]	PREEMERGENCE HERBICIDAL ACTIVITY (% CONTROL) SETVI [9] [%]	PREEMERGENCE HERBICIDAL ACTIVITY (% CONTROL) SORHA [10] [%]	Postemergence herbicidal activity (% control) SOY [11] [%]	Postemergence herbicidal activity (% control) WHT [12] [%]	Postemergence herbicidal activity (% control) CRN [13] [%]	Postemergence herbicidal activity (% control) ABUTH [14] [%]	Postemergence herbicidal activity (% control) IPOSS [15] [%]	Postemergence herbicidal activity (% control) STEME [16] [%]	Postemergence herbicidal activity (% control) XANPE [17] [%]	Postemergence herbicidal activity (% control) ALOMY [18] [%]	Postemergence herbicidal activity (% control) SETVI [19] [%]	Postemergence herbicidal activity (% control) SORHA [20] [%]
Cc1nc2c(-n3c(=O)cc(C(F)(F)F)n(C)c3=O)c(F)cc(Cl)c2o1 [Compound 1]	100	85	90	100	100	100	100	90	100	95	95	65	80	100	100	90	100	70	80	80
Cc1nc2c(-n3c(=O)cc(C(F)(F)F)n(C)c3=O)c(F)cc(Br)c2o1 [Compound 16]	100	70	90	100	100	100	90	80	100	95	95	60	80	100	100	70	95	70	80	80
CCc1nc2c(-n3c(=O)cc(C(F)(F)F)n(C)c3=O)c(F)cc(Cl)c2o1 [Compound 25]	100	100	100	100	100	100	95	90	100	100	100	80	90	100	100	100	100	80	100	90
